Assay results: patent US20080090834A1, “SELECTIVE AZOLE PDE10A INHIBITOR COMPOUNDS” (Pfizer Inc, priority 2006, published 2008)
Where a name gives a salt, the structure may show the parent alone.

Biological target: T1, cloned rat PDE10A full-length enzyme (Rattus norvegicus, UniProt Q9QYJ6)
T1 construct: cloned rat PDE10A full-length enzyme grown in transfected Sf9 insect cells; made in house; host or cells: Sf9 insect cells
T1 sequence (Q9QYJ6 1-794): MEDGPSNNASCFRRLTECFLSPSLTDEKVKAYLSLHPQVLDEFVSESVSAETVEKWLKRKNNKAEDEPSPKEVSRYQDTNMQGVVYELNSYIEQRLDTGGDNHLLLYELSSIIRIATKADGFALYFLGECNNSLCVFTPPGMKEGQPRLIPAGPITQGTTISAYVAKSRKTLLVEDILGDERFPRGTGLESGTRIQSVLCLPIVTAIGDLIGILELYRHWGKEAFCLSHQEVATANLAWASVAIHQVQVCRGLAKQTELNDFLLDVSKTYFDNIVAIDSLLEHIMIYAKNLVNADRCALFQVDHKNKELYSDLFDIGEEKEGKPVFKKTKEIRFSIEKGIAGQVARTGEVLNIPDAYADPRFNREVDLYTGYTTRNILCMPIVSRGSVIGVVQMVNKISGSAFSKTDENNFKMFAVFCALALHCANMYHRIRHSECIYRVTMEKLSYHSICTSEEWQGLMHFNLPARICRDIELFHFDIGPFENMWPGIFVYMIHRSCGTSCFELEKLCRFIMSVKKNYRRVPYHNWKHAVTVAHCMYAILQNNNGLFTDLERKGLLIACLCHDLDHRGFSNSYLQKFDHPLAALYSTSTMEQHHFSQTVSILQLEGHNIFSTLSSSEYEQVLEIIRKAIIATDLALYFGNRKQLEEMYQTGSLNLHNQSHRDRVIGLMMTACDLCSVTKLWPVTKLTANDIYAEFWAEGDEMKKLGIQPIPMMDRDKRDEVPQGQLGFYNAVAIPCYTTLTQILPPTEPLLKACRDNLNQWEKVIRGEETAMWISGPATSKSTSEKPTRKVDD
Assay: PDE10 enzyme inhibition, [3H]cAMP scintillation proximity assay
Type: biochemical
Settings: rat PDE10A from Sf9 cells, 20 nM [3H]cAMP, SPA beads, 20 minute incubation at room temperature
Method: Compounds of the present invention were evaluated for ability to inhibit PDE10 enzyme with the following Assay procedure
The enzyme used in the procedure was cloned rat PDE10A full-length enzyme grown in transfected Sf9 insect cells. Cloned enzyme was extracted from homogenized cell pellets and stored frozen in homogenizing buffer until use. Compounds were initially dissolved in 100% DMSO and diluted out in 20 percent DMSO/water solution. Final concentration of DMSO in the assay was 2 percent as compounds were tested in triplicate in 96 well plates. Compound solution was placed in well, then tritiated cyclic AMP (New England Nuclear NET275) in assay buffer was added at 20 nM concentration. Then PDE10 enzyme in assay buffer of 50 mM Tris, 8.3 mM MgCl2, pH 7.5 at room temperature was added for a final assay volume of 100 ul. Concentration of enzyme was added such that less than 10 percent of [3H]cAMP at 20 nM was converted to detectable end product, [3H]AMP bound to SPA (Scintillation Proximity Assay) beads. Phosphodiesterase scintillation proximity yttrium silicate beads from Amersham Biosciences (RPNQ0150) were added (50 ul at 20 mg/ml) after a 20 minute incubation at room temperature. Zinc sulphate as a component of the beads stops the phosphodiesterase reaction.
Non-specific binding to SPA beads was determined by addition of 1 uM papaverine. Total conversion by enzyme without inhibitor of [3H]cAMP to [3H]AMP, as detected by scintillation of [3H]AMP bound to yttrium silicate beads, was determined in the presence of vehicle-only.

Row | Compound | IC50 [nM]
1 | COc1nc2cccnc2n1-c1ccc(-c2nc(-c3ccccn3)cn2-c2ccc(C)nc2)cc1 [Example 60, 2-methoxy-3-(4-(1-(6-methylpyridin-3-yl)-4-(pyridin-2-yl)-1H-imidazol-2-yl)phenyl)-3H-imidazo[4,5-b]pyridine] | 0.388
2 | Clc1ccc(-c2cn(-c3cncnc3)c(-c3ccc(-n4ccc5cccnc54)cc3)n2)s1 [Example 62, 1-(4-(4-(5-chlorothiophen-2-yl)-1-(pyrimidin-5-yl)-1H-imidazol-2-yl)phenyl)-1H-pyrrolo[2,3-b]pyridine] | 65.1
3 | Cc1ccc(-n2cc(-c3ccc(F)s3)nc2-c2ccc(-n3ccc4cccnc43)cc2)cn1 [Example 64, 1-(4-(4-(5-fluorothiophen-2-yl)-1-(6-methylpyridin-3-yl)-1H-imidazol-2-yl)phenyl)-1H-pyrrolo[2,3-b]pyridine] | 6.59
4 | Cc1cc(-n2cc(-c3nccn3C)nc2-c2ccc(-n3ccc4cccnc43)cc2)ccn1 [Example 66, 1-(4-(4-(1-methyl-1H-imidazol-2-yl)-1-(2-methylpyridin-4-yl)-1H-imidazol-2-yl)phenyl)-1H-pyrrolo[2,3-b]pyridine] | 112
5 | Cn1ccnc1-c1cn(-c2cncnc2)c(-c2ccc(-n3ccc4cccnc43)cc2)n1 [Example 67] | 274
6 | Cc1cc(-n2cc(-c3cccnc3)nc2-c2ccc(-n3ccc4cccnc43)cc2)ccn1 [Example 68, 1-(4-(1-(2-methylpyridin-4-yl)-4-(pyridin-3-yl)-1H-imidazol-2-yl)phenyl)-1H-pyrrolo[2,3-b]pyridine bis-TFA salt] | 5.1
7 | c1ccc(-c2cn(-c3cncnc3)c(-c3ccc(-c4cccnc4)cc3)n2)nc1 [Example 72] | 160
8 | c1ccc(-c2cn(-c3cncnc3)c(-c3ccc(-c4ccncc4)cc3)n2)nc1 [Example 73] | 74.3
9 | c1cncc(-n2cc(-c3nc4ccccc4s3)nc2-c2ccc(-n3ccc4cccnc43)cc2)c1 [Example 76, 1-(4-(4-benzo[d]thiazol-2-yl)-1-(pyridin-3-yl)-1H-b]pyridine] | 544
10 | COc1ccnc2c(-c3ccc(-c4nc(-c5ccccn5)cn4-c4cccnc4)cc3)cc(C)cc12 [Example 77] | 156
11 | c1ccc(-c2cn(-c3cccnc3)c(-c3ccc(-c4nccc5cccnc45)cc3)n2)nc1 [Example 78] | 3.26
12 | c1ccc(-c2cn(-c3cccnc3)c(-c3ccc(-c4cccc5cccnc45)cc3)n2)nc1 [Example 79, 8-(4-(4-(pyridin-2-yl)-1-(pyridin-3-yl)-1H-imidazol-2-yl)phenyl)quinoline] | 3.94
13 | COc1cc(-c2ccc(-c3nc(-c4ccccn4)cn3-c3cccnc3)cc2)c2ncccc2c1 [Example 80, 6-methoxy-8-(4-(4-(pyridin-2-yl)-1-(pyridin-3-yl)-1H-imidazol-2-yl)phenyl)quinoline] | 0.794
14 | Cc1nc(-c2cn(-c3cncnc3)c(-c3ccc(-n4ccc5cccnc54)cc3)n2)sc1C [Example 85] | 74.2
15 | Cc1ccc(-n2cc(-c3nccs3)nc2-c2ccc(-n3c(C(F)(F)F)nc4cccnc43)cc2)cn1 [Example 87] | < 1000
16 | COc1nc2cccnc2n1-c1ccc(-c2nc(-c3nc(C)cs3)cn2-c2ccc(C)nc2)cc1 [Example 90, 2-methoxy-3-(4-(1-(6-methylpyridin-3-yl)-4-(4-methylthiazol-2-yl)-1H-imidazol-2-yl)phenyl)-3H-imidazol[4,5-b]pyridine] | 0.287
17 | COc1nc2cccnc2n1-c1ccc(-c2nc(-c3cccs3)cn2-c2ccc(C)nc2)cc1 [Example 93, 2-methoxy-3-(4-(1-(6-methylpyridin-3-yl)-4-(thiophen-2-yl)-1H-imidazol-2-yl)phenyl)-3H-imidazo[4,5-b]pyridine] | < 0.424
18 | CCOc1nc2cccnc2n1-c1ccc(-c2nc(-c3ccccn3)cn2-c2ccc(C)nc2)cc1 [Example 94, 2-ethoxy-3-(4-(1-(6-methylpyridin-3-yl)-4-(pyridin-2-yl)-1H-imidazol-2-yl)phenyl)-3H-imidazol[4,5-b]pyridine] | 1.02
19 | Cc1ccc(-n2cc(-c3cscn3)nc2-c2ccc(-n3c(C(C)C)nc4cccnc43)cc2)cn1 [Example 98, 2-isopropyl-3-(4-(1-(6-methylpyridin-3-yl)-4-(thiazol-4-yl)-1H-imidazol-2-yl)phenyl)-3H-imidazo[4,5-b]pyridine] | 1.13
20 | COc1ccc(-c2[nH]c(-c3cccs3)nc2-c2ccc(-n3ccc4cc(OC)ccc43)cc2)cc1 [Example 102, 5-methoxy-1-(4-(5-(4-methoxyphenyl)-2-(thiophen-2-yl)-1H-imidazol-4-yl)phenyl)-1H-indole] | 15.8

Continued, values first:

Row | IC50 [nM] | Compound
21 | 54.8 | Cc1ccc(-n2cc(-c3ncc(C)s3)nc2-c2ccc(-n3ccc4cccnc43)cc2)cn1 [Example 61, 1-(4-(1-(6-methylpyridin-3-yl)-4(5-methylthiazol-2-yl)-1H-imidazol-2-yl)phenyl)-1H-pyrrolo[2,3-b]pyridine]
22 | 13.8 | Cc1csc(-c2cn(-c3cncnc3)c(-c3ccc(-n4ccc5cccnc54)cc3)n2)n1 [Example 63]
23 | 89.7 | Cc1cc(-n2cc(-c3ccncc3)nc2-c2ccc(-n3ccc4cccnc43)cc2)ccn1 [Example 69, 1-(4-(1-(2-methylpyridin-4-yl-4-(pyridin-4-yl)-1H-imidazol-2-yl)phenyl)-1H-pyrrolo-[2,3-b]pyridinebis-TFA salt]
24 | 216 | Clc1ccc(-c2ccc(-c3nc(-c4ccccn4)cn3-c3cncnc3)cc2)cc1Cl [Example 70, 5-(2-(4-(3,4-dichloropheny)phenyl)-4-(pyridin-2-yl)-1H-imidazol-1-yl)pyrimidine]
25 | 67.6 | Clc1ccc(-c2ccc(-c3nc(-c4ccccn4)cn3-c3cncnc3)cc2)cc1 [Example 71, 5-(2-(4-(4-chlorophenyl)phenyl)-4-(pyridin-2-yl)-1H-imidazol-1-yl)pyrimidine]
26 | 2.27 | Cc1ccc(-n2cc(-c3ccccn3)nc2-c2ccc(-n3ccc4cncnc43)cc2)cn1 [Example 74, 7-(4-(1-(6-methylpyridin-3-yl)-4-(pyridin-2-yl)-1H-imidazol-2-yl)phenyl)-7H-pyrrolo[2,3-d]pyrimidine]
27 | 2.41 | Cc1ccc(-n2cc(-c3ccccn3)nc2-c2ccc(-n3cc(C)c4nccnc43)cc2)cn1 [Example 75]
28 | 0.73 | Cc1ccc(-n2cc(-c3nccs3)nc2-c2ccc(-n3c(C(F)F)nc4cccnc43)cc2)cn1 [Example 84]
29 | 0.741 | CCCOc1nc2cccnc2n1-c1ccc(-c2nc(-c3ccccn3)cn2-c2ccc(C)nc2)cc1 [Example 91, 3-(4-(1-(6-methylpyridin-3-yl)-4-(pyridin-2-yl)-1H-imidazol-2-yl)phenyl)-2-propoxy-3H-imidazo[4,5-b]pyridine]
30 | 3.91 | Cc1ccc(-n2cc(-c3ccccn3)nc2-c2ccc(-n3c(=O)[nH]c4cccnc43)cc2)cn1 [Example 95]
31 | 0.695 | COc1nc2cccnc2n1-c1ccc(-c2nc(-c3cscn3)cn2-c2ccc(C)nc2)cc1 [Example 96, 2-methoxy-3-(4-(1-(6-methylpyridin-3-yl)-4-(thiazol-4-yl)-1H-imidazol-2-yl)phenyl)-3H-imidazo[4,5-b]pyridine]
32 | 1.96 | Cc1ccc(-n2cc(-c3cncs3)nc2-c2ccc(-n3c(C(C)C)nc4cccnc43)cc2)cn1 [Example 97]
33 | 1.31 | CCOc1nc2cccnc2n1-c1ccc(-c2nc(-c3cscn3)cn2-c2ccc(C)nc2)cc1 [Example 100, 2-ethoxy-3-(4-(1-(6-methylpyridin-3-yl)-4-(thiazol-4-yl)-1H-imidazol-2-yl)phenyl)-3H-imidazo[4,5-b]pyridine]
34 | 2.82 | COc1ccc(-c2[nH]c(-c3cccs3)nc2-c2ccc(-n3ccc4cccnc43)cc2)cc1 [Example 103]
35 | < 2.45 | On1c(-c2cccs2)nc(-c2ccc(-n3ccc4cccnc43)cc2)c1-c1cnccn1 [Example 104, 1-(4-(1-hydroxy-5-(pyrazin-2-yl)-2-(thiophen-2-yl)-1H-imidazol-4-yl)phenyl)-1H-pyrrolo[2,3-b]pyridine]
